From US9469650B2, “Melampomagnolide B derivatives” (BOARD OF TRUSTEES OF THE UNIVERSITY OF ARKANSAS, priority 2013, dated 2016)

Tests used:
BT-549 = assay: panel of 60 human tumor cell lines, growth inhibition (Breast Cancer); conditions: BT-549
SK-MEL-5 = assay: panel of 60 human tumor cell lines, growth inhibition (Melanoma); conditions: 8K-MEL-5
DU-145 = assay: panel of 60 human tumor cell lines, growth inhibition (Prostate Cancer); conditions: DU-145
HOP-62 = assay: panel of 60 human tumor cell lines, growth inhibition (Non-Small Cell Lung Cancer); conditions: HOP-62
OVCAR-5 = assay: panel of 60 human tumor cell lines, growth inhibition (Ovarian Cancer); conditions: OVCAR-5
OVCAR-8 = assay: as above; conditions: OVCAR-8
SF-295 = assay: panel of 60 human tumor cell lines, growth inhibition (CNS Cancer); conditions: SF-295
SK-OV-3 = assay: panel of 60 human tumor cell lines, growth inhibition (Ovarian Cancer); conditions: SK-OV-3
RXF 393 = assay: panel of 60 human tumor cell lines, growth inhibition (Renal Cancer); conditions: RXF 393

Which results are given for `C=C1C(=O)O[C@H]2[C@H]1CC/C(COC(=O)N1CCC(F)(F)CC1)=C\CC[C@@]1(C)O[C@@H]21` [JVM 2-66]?
GI50 (BT-549): 2.69 µM; TGI (BT-549): 8.54E−6; Percent Growth (BT-549; Log10 Concentration −4.0): −99%; Percent Growth (BT-549; Log10 Concentration −5.0): −7%; Percent Growth (BT-549; Log10 Concentration −6.0): 93%; Percent Growth (BT-549; Log10 Concentration −7.0): 98%; Percent Growth (BT-549; Log10 Concentration −8.0): 100%; GI50 (SK-MEL-5): 3.81 µM; TGI (SK-MEL-5): 1.50E−5; Percent Growth (SK-MEL-5; Log10 Concentration −4.0): −96%; Percent Growth (SK-MEL-5; Log10 Concentration −5.0): 21%; Percent Growth (SK-MEL-5; Log10 Concentration −6.0): 91%; Percent Growth (SK-MEL-5; Log10 Concentration −7.0): 99%; Percent Growth (SK-MEL-5; Log10 Concentration −8.0): 99%; GI50 (DU-145): 2.44 µM; TGI (DU-145): 8.35E−6; Percent Growth (DU-145; Log10 Concentration −4.0): −100%; Percent Growth (DU-145; Log10 Concentration −5.0): −7%; Percent Growth (DU-145; Log10 Concentration −6.0): 86%; Percent Growth (DU-145; Log10 Concentration −7.0): 100%; Percent Growth (DU-145; Log10 Concentration −8.0): 102%; GI50 (HOP-62): 13.6 µM; TGI (HOP-62): 2.81E−5; Percent Growth (HOP-62; Log10 Concentration −4.0): −87%; Percent Growth (HOP-62; Log10 Concentration −5.0): 71%; Percent Growth (HOP-62; Log10 Concentration −6.0): 93%; Percent Growth (HOP-62; Log10 Concentration −7.0): 92%; Percent Growth (HOP-62; Log10 Concentration −8.0): 101%; GI50 (OVCAR-5): 4.25 µM; TGI (OVCAR-5): 1.60E−5; Percent Growth (OVCAR-5; Log10 Concentration −4.0): −83%; Percent Growth (OVCAR-5; Log10 Concentration −5.0): 21%; Percent Growth (OVCAR-5; Log10 Concentration −6.0): 99%; Percent Growth (OVCAR-5; Log10 Concentration −7.0): 90%; Percent Growth (OVCAR-5; Log10 Concentration −8.0): 96%; GI50 (OVCAR-8): 2.83 µM; TGI (OVCAR-8): 1.01E−5; Percent Growth (OVCAR-8; Log10 Concentration −4.0): −86%; Percent Growth (OVCAR-8; Log10 Concentration −6.0): 91%; Percent Growth (OVCAR-8; Log10 Concentration −7.0): 96%; Percent Growth (OVCAR-8; Log10 Concentration −8.0): 98%; GI50 (SF-295): 12 µM; TGI (SF-295): 2.49E−5; Percent Growth (SF-295; Log10 Concentration −4.0): −96%; Percent Growth (SF-295; Log10 Concentration −5.0): 63%; Percent Growth (SF-295; Log10 Concentration −6.0): 91%; Percent Growth (SF-295; Log10 Concentration −7.0): 91%; Percent Growth (SF-295; Log10 Concentration −8.0): 95%; GI50 (SK-OV-3): 16.2 µM; TGI (SK-OV-3): 3.22E−5; Percent Growth (SK-OV-3; Log10 Concentration −4.0): −83%; Percent Growth (SK-OV-3; Log10 Concentration −5.0): 85%; Percent Growth (SK-OV-3; Log10 Concentration −6.0): 100%; Percent Growth (SK-OV-3; Log10 Concentration −7.0): 92%; Percent Growth (SK-OV-3; Log10 Concentration −8.0): 100%; GI50 (RXF 393): 1.2 µM; TGI (RXF 393): 2.53E−6; Percent Growth (RXF 393; Log10 Concentration −4.0): −92%; Percent Growth (RXF 393; Log10 Concentration −5.0): −92%; Percent Growth (RXF 393; Log10 Concentration −6.0): 62%; Percent Growth (RXF 393; Log10 Concentration −7.0): 95%; Percent Growth (RXF 393; Log10 Concentration −8.0): 100%
